The record followed here is PubChem BioAssay AID1996.

Converted amounts (≈) assume the structure as drawn.

For this data set the following is noted: buffer; pH 7.4; 200.0 µM.
In turn, `O=C1OCC2=C1C(c1ccccc1)CC(=O)N2c1ccc(F)cc1` (centres undefined) showed a kinetic solubility above 48.5 µg/mL.
For the compound `CCCS(=O)(=O)N1CCCC(C(=O)N2CCCCC2)C1` (centres undefined), the solubility (kinetic) turned out to be 43 µg/mL (≈ 142 µM).
`Cn1c(=O)c2ccccc2n(CC(=O)Nc2ccc3c(c2)OCCO3)c1=O` registered a solubility (kinetic) of 4.6 µg/mL (≈ 12.5 µM).
In turn, `Cc1noc(C)c1C(=O)N(C)Cc1ccccc1` had a solubility (kinetic) of 34 µg/mL (≈ 139 µM).
Turning to `COCCn1c(C)cc(C(=O)COC(=O)c2ccc([N+](=O)[O-])o2)c1C`, the kinetic solubility was above 52.5 µg/mL.
For `Cc1c(Cc2ccccc2)c(=O)n2c([nH]c3ccccc32)c1C#N`, the kinetic solubility is below 0.2 µg/mL.
In turn, `CCc1c(C)nc(N)nc1Cl` had a kinetic solubility of 24.1 µg/mL (≈ 140 µM).
As for `CN1CC(C(=O)c2ccc(Cl)cc2)C(c2ccccc2)C1` (centres undefined), the solubility (kinetic) came out at 40.1 µg/mL (≈ 134 µM).
The compound `Cc1ccc(NC(=O)C2CCC(C(C)(C)C)CC2)cc1S(=O)(=O)N1CCOCC1` (centres undefined) gave a kinetic solubility of 3.5 µg/mL (≈ 8.28 µM).
With `Cc1ccccc1NC(=O)COc1cccc2c1CCNC2=O`, the kinetic solubility is 46.1 µg/mL (≈ 149 µM).
Regarding `O=C(CNC(=O)c1ccco1)NNC(=O)c1ccc(Br)cc1`, the kinetic solubility was above 54.9 µg/mL.
`COc1ccc(Oc2ccc(C(F)(F)F)cc2NC(=O)c2ccc(F)cc2)cc1` displayed a solubility (kinetic) below 0.9 µg/mL.
Under `Oc1ccccc1N1CCN(C(=S)NCc2ccccc2)CC1` stands 22.4 µg/mL (≈ 68.4 µM).
As to `COc1ccc(NC(=S)Nc2ccccc2)cc1`, the kinetic solubility was above 38.8 µg/mL.
`Cc1noc(C)c1-c1nc(CSc2ccc(Cl)cc2)no1` returned a solubility (kinetic) below 0.2 µg/mL.
As to `COc1cccc(N/C=C/C(=O)c2ccc(OC)c(OC)c2)c1`, the solubility (kinetic) worked out at 2.3 µg/mL (≈ 7.34 µM).
Take `Cl.c1ccc(C2CN3CCSC3=N2)cc1` (centres undefined): the solubility (kinetic) was above 36.1 µg/mL.
Under `O=C(CCc1ccccc1)Oc1ccccc1[N+](=O)[O-]` stands 5.2 µg/mL (≈ 19.2 µM).
For the compound `COc1cccc(CSc2nccn2C)c1`, the kinetic solubility was above 35.1 µg/mL.
Turning to `COc1ccc(NC(=O)/C(C#N)=C/c2ccc[nH]2)c(OC)c1`, the kinetic solubility came to 0.3 µg/mL (≈ 1.01 µM).
Under `CN(CC(=O)Nc1cccc(F)c1)C(=O)c1ccc(-c2ccc(Cl)cc2)o1` stands 5.6 µg/mL (≈ 14.5 µM); under `Cc1nc2ccc(Br)cc2c2c1CC(CBr)O2` (centres undefined), 2.2 µg/mL (≈ 6.16 µM); under `CCN1CCN(c2nc(NCCO)c3ccccc3n2)CC1.Cl`, 48 µg/mL.
Turning to `CC1CCC(N(C)C2CCN(C)CC2)CC1` (centres undefined), the solubility (kinetic) is 22.4 µg/mL (≈ 99.8 µM).
Compound `O=C(CSc1ccc(F)cc1)Nc1ccc2c(c1)C(=O)NC2=O` registered a kinetic solubility of 31.6 µg/mL (≈ 95.7 µM).
To `CN(C)S(=O)(=O)c1ccc(NC=C(C#N)C#N)cc1` belongs 26.3 µg/mL (≈ 95.2 µM); to `CCn1cnc2cc(NCc3ccccc3Cl)ccc21`, above 42.9 µg/mL.
Under `Nc1cccc(CP(=O)(c2ccccc2)c2ccccc2)c1` stands above 46.1 µg/mL; under `O=C(NC1CCCCC1)c1cc([N+](=O)[O-])ccc1N1CCCC1`, 3.3 µg/mL (≈ 10.4 µM).
Under `O=C(Cc1ccc(F)cc1)Nc1ccc(Cl)cn1` stands 8.1 µg/mL (≈ 30.6 µM).
On to `COCCNC(=S)Nc1ccc2[nH]c(=O)[nH]c2c1`, for which the kinetic solubility was above 39.9 µg/mL.
Consider `Clc1ccc(-c2noc(CN3CCOCC3)n2)cc1`, for which the solubility (kinetic) was above 42 µg/mL.
Under `COc1cccc(N2CCN(CC(=O)NC(C)c3ccccc3)CC2)c1` (centres undefined) stands 45 µg/mL (≈ 127 µM).
To `COC(=O)c1sccc1NC(=S)Nc1ccc(F)cc1F` belongs 42 µg/mL (≈ 128 µM); to `Cc1ccccc1C(=O)Nc1ccccc1C(=O)N1CCC(C)CC1`, 32.9 µg/mL (≈ 97.8 µM).
In the case of `Cc1ccc(NC(=O)C(=O)C2C(=O)Nc3ccccc32)cc1` (centres undefined), the solubility (kinetic) amounted to 39.8 µg/mL (≈ 135 µM).
For `O=c1c2sc3ccccc3c2[nH]c(=S)n1CCN1CCOCC1`, the solubility (kinetic) is 49.9 µg/mL (≈ 144 µM).
For the compound `CC(=O)c1cccc(N=Cc2c(O)ccc3ccccc23)c1`, the kinetic solubility came to 2.3 µg/mL (≈ 7.95 µM).
Turning to `O=C1NC2(CCCCC2)C(=O)N1Cc1cc(=O)n2ccsc2n1`, the solubility (kinetic) was 44.7 µg/mL (≈ 134 µM).
In turn, `CN(C)NC(=S)NC1(C)CCS(=O)(=O)C1` (centres undefined) registered a solubility (kinetic) above 37.7 µg/mL.
Under `O=C(/C=C/c1c(F)cccc1Cl)NCc1ccc2c(c1)OCO2` stands below 0.7 µg/mL; under `CCC(C)[C@H](NC(=O)NCCCOC(C)C)C(=O)OC` (some centres undefined), above 43.3 µg/mL; under `COCCNC(=S)N1CCN(C)CC1.O=C(O)C(=O)O`, above 46.1 µg/mL.
On to `O=C(O)CSCC(=O)N1CCCCC1`, for which the kinetic solubility is above 32.6 µg/mL.
To `Cc1ccc(S(=O)(=O)N[C@H](C(=O)NC2CCC(C)CC2)C(C)C)cc1` (some centres undefined) belongs 24 µg/mL (≈ 65.5 µM); to `COc1ccc(NC(=O)CN(C)Cc2cccs2)cc1Cl`, 42.1 µg/mL (≈ 130 µM).
To `CN1C(=O)/C(=C/c2coc3ccc(O)cc3c2=O)SC1=S` belongs below 0.7 µg/mL; to `COc1ccccc1CN1CCN(S(=O)(=O)c2ccc(C)cc2)CC1`, 1 µg/mL (≈ 2.77 µM).
As to `O=C(CCc1ccccc1)Nc1ccc2c(c1)OCO2`, the solubility (kinetic) is 26.6 µg/mL (≈ 98.8 µM).
Compound `Cc1ccc2nc(CCl)[n+]([O-])c(-c3ccccc3)c2c1` returned a solubility (kinetic) of 27.8 µg/mL (≈ 97.6 µM).
The compound `Cc1ccc(C(=O)O/N=C(\N)Cc2ccc([N+](=O)[O-])cc2)c(Cl)c1` came in with a solubility (kinetic) of 3.9 µg/mL (≈ 11.2 µM).
In the case of `CCOC(=O)NC(N(O)c1cccc(Cl)c1)C(Cl)(Cl)Cl` (centres undefined), the solubility (kinetic) was 37.1 µg/mL (≈ 102 µM).
Under `O=C(NC1CCCCC1)c1cccnc1Sc1ccccc1` stands 11.2 µg/mL (≈ 35.8 µM).
To `CCN(CC)c1ccc(NC(=S)NC(=O)c2cccs2)cc1` belongs below 0.2 µg/mL.
On to `O=C(/C=C/c1cccc(F)c1)N1CCN(c2ccccn2)CC1`, for which the kinetic solubility came to 39.4 µg/mL (≈ 127 µM).
In turn, `CCCCOc1ccc(C(=O)NNC(=O)c2cnccn2)cc1OC` returned a kinetic solubility above 51.7 µg/mL.
To `Cc1ccc(NC(=O)NCc2cccnc2)cc1Cl` belongs 39.7 µg/mL (≈ 144 µM); to `CC(C)c1onc(C(=O)Nc2cccc(O)c2)c1[N+](=O)[O-]`, 37.4 µg/mL (≈ 128 µM).
Under `CC1CCc2ccccc2N1C(=N)N(C)C.Cl` (centres undefined) stands above 38.1 µg/mL; under `Cn1c(=O)c(C=Nc2ccccc2)c(O)c2ccccc21`, 11.2 µg/mL (≈ 40.2 µM); under `Cn1cccc1/C=C(/C#N)c1ccc(F)cc1`, 2.9 µg/mL (≈ 12.8 µM).
With `COc1cc(-c2noc(CCC(=O)NC3CCCCC3)n2)cc(OC)c1OC`, the solubility (kinetic) is 10 µg/mL (≈ 25.7 µM).
Turning to `COc1cc(F)ccc1S(=O)(=O)n1c(C)nc2ccccc21`, the kinetic solubility is above 48.1 µg/mL.
For the compound `Cc1ccc(S(=O)(=O)N(OCc2ccccc2)C(C)C(=O)O)cc1` (centres undefined), the kinetic solubility was found to be 52.1 µg/mL (≈ 149 µM).
To `O=C(COC(=O)C1C2CC3OC(=O)C1C3C2)Nc1ccccc1` (centres undefined) belongs above 47.3 µg/mL; to `COCc1cc(OC(=O)N(C)C)nc(-c2ccccc2)n1`, above 43.1 µg/mL; to `CC(C)CCNc1nc(N)c([N+](=O)[O-])c(NCCO)n1`, 42.3 µg/mL (≈ 149 µM).
Under `CCN(CC(=O)NCc1ccc(F)cc1)C(=O)c1cc2ccccc2o1` stands 47.2 µg/mL (≈ 133 µM); under `O=C(NCc1ccccc1)c1cc[n+]([O-])cc1`, above 34.2 µg/mL.
`CCOC(=O)CC1COCCN1Cc1cn(C)nc1-c1ccccc1F` (centres undefined): the solubility (kinetic) is above 54.2 µg/mL.
Under `Cc1ccc(NC(=O)C2=NNC(=O)CC2)cc1F` stands above 37.4 µg/mL.
To `COC1CCCN(Cc2nc(Cc3ccccc3F)no2)C1` (centres undefined) belongs 37.9 µg/mL (≈ 124 µM); to `O=C(N/C(=C\c1ccc(Cl)cc1)C(=O)N1CCCCC1)c1ccco1`, above 53.8 µg/mL.
For the compound `CSc1cccc(NC(N)=O)c1`, the kinetic solubility came out at 25.1 µg/mL (≈ 138 µM).
`Cc1ccccc1Sc1ccc([N+](=O)[O-])cn1` had a solubility (kinetic) of 7.4 µg/mL (≈ 30 µM).
To `COc1ccc(CSCC(=O)NCCC(C)C)cc1` belongs above 42.2 µg/mL.
As to `N#Cc1nc(-c2ccc(F)cc2)oc1NCc1ccco1`, the kinetic solubility was 1.1 µg/mL (≈ 3.88 µM).
Turning to `CC(OC(=O)Cn1ccccc1=O)C(=O)Nc1cc(Cl)cc(Cl)c1` (centres undefined), the kinetic solubility is above 55.4 µg/mL.
In turn, `Cc1ccc(NC(=O)CN2C(=S)NC(C)(C)CC2C)cc1Cl` (centres undefined) showed a solubility (kinetic) of 8.2 µg/mL (≈ 24.1 µM).
Compound `CCOP(=O)(OCC)C(NC(=O)NC)C(N)=O` (centres undefined) came in with a solubility (kinetic) of 30.4 µg/mL (≈ 114 µM).
As for `S=c1[nH]c2ccc(Cc3ccc4[nH]c(=S)[nH]c4c3)cc2[nH]1`, the kinetic solubility was determined as 1.7 µg/mL (≈ 5.44 µM).
`Cc1cccc(C(=O)OC(C)CN2CCCC2)c1.Cl` (centres undefined) returned a solubility (kinetic) above 42.6 µg/mL.
Take `COc1cc(/C=C/[N+](=O)[O-])ccc1OC(=O)c1cccnc1`: the solubility (kinetic) is 3.7 µg/mL (≈ 12.3 µM).
Take `COc1ccccc1NC(=O)COc1ccc2ccccc2c1`: the kinetic solubility turned out to be 2.5 µg/mL (≈ 8.13 µM).
Compound `COc1cccc(Oc2nc(N)ncc2[N+](=O)[O-])c1` yielded a kinetic solubility of 32.3 µg/mL (≈ 123 µM).
`O=C(Nc1ccccc1C(=O)NCCc1ccc(O)cc1)c1ccco1` gave a kinetic solubility of 24.2 µg/mL (≈ 69.1 µM).
`COc1ccc(NC(=O)c2cc(C)nc3ccccc23)cc1S(=O)(=O)N1CCOCC1` came in with a solubility (kinetic) of 6.1 µg/mL (≈ 13.8 µM).
In turn, `COc1cc(OC)cc(C(=O)Nc2ccc(C(=O)Nc3ccccc3OC)cc2)c1` had a kinetic solubility of 6.4 µg/mL (≈ 15.7 µM).
Regarding `CC(=O)Nc1ccc(C(=O)OCC(=O)N2CCCC2)cc1`, the kinetic solubility was above 43.5 µg/mL.
For the compound `CCN(CC)S(=O)(=O)c1ccc(C(=O)O)cc1`, the kinetic solubility worked out at 30.4 µg/mL (≈ 118 µM).
For `CCOCCCNC(=O)C1CC(=O)N(CCc2ccccc2)C1` (centres undefined), the solubility (kinetic) was 41.7 µg/mL (≈ 131 µM).
Consider `O=C(CCn1c(=O)oc2ccccc21)Nc1ccc(C(=O)O)cc1`, for which the kinetic solubility is above 48.9 µg/mL.
For `CC1CCCCC1NC(=O)C1CC(=O)N(Cc2ccccc2)C1` (centres undefined), the kinetic solubility was above 47.2 µg/mL.
`O=c1oc2c(-c3ccc([N+](=O)[O-])cc3)cc(O)cc2s1`: the solubility (kinetic) was below 0.6 µg/mL.
For `CCOc1ccc(C(=O)NCCNC(=O)c2ccc(OCC)cc2)cc1`, the kinetic solubility is 1.5 µg/mL (≈ 4.21 µM).
The compound `CCCCn1c(N2CCCC2)nc2c1c(=O)[nH]c(=O)n2C` had a kinetic solubility above 43.7 µg/mL.
As for `Cc1sc2nc(SCCO)n(-c3ccccc3)c(=O)c2c1C`, the solubility (kinetic) was found to be 1.4 µg/mL (≈ 4.21 µM).
In turn, `COc1ccc(-c2csc(Nc3cccc(C)n3)n2)cc1C` displayed a solubility (kinetic) of 3.4 µg/mL (≈ 10.9 µM).
Under `CC(CNS(=O)(=O)c1ccccc1)Sc1ncccn1` (centres undefined) stands above 46.4 µg/mL; under `Nc1c(C(=O)N2CCOCC2)sc2nc3c(cc12)CCCC3`, above 47.6 µg/mL.
To `Cc1ccnc(NC(=O)CCC(=O)c2cccs2)c1` belongs above 41.2 µg/mL; to `COC(=O)CNC(=O)CCc1nnc(C2(c3ccc(Cl)cc3)CCC2)o1`, above 56.7 µg/mL.
Under `COc1ccc(CCC(=O)OCC(=O)NCc2ccccc2)cc1` stands above 49.1 µg/mL.
The compound `CC1CCN(C(=O)COC(=O)c2nn(C)c(=O)c3ccccc23)CC1` yielded a kinetic solubility above 51.5 µg/mL.
